Results on five compounds are retold here after patent US10662194B2, “Substituted 6-anilino-9-heterocyclylpurine derivatives for inhibition of plant stress” (UNIVERZITA PALACKEHO V OLOMOUCI, priority 2014, dated 2020).

Where two headings read alike, the source gives them in different places.

Test [1] deals with CKX1 overproducing (35S:CKX1) Arabidopsis seedlings. The test can be described thus: In vitro shoot and root growth of cytokinin deficient Arabidopsis plants. To be noted: for complementation of wild type shoot phenotype: 0.1 μM in MS medium, FIG. 3, 4. It is filed as in vivo. From the text:
Constitutive overexpression of CKX in 35S:CKX1 plants leads to enhanced root growth. If CKX inhibitor can restore WT phenotype, it is expected that inhibition of the CKX activity in 35S:AtCKX1 plants should thus have no effect or inhibit their root growth. Such observation was done in case of INCYDE, but not compound 12.

In test [2] the test system is wild-type Arabidopsis plants. The test can be described thus: In vitro root growth of wild-type Arabidopsis plants. To be noted: 0.1 μM in MS medium, FIG. 6. It is filed as in vivo. The method, then: As shown in previous example presence of compound 12 in the growth medium has positive effect on the root growth of cytokinin-deficient Arabidopsis plants. This effect was further studied using wild-type Arabidopsis plants and compared with biologically and structurally relevant compounds, a cytokinin BAP and a CKX inhibitor INCYDE. […] Arabidopsis seedlings were grown in vitro on a standard MS medium containing 0.1 μM cytokinin BAP, the same concentration of compound 12 and the same concentration of CKX inhibitor INCYDE (2-chloro-6-(3-methoxyanilino)purine).

Test [3] concerns the target T1, recombinant AtCKX2 (Arabidopsis thaliana, UniProt Q9FUJ3).
T1 construct: made in house; host or cells: S. cerevisiae strain 23344c ura-
T1 sequence (Q9FUJ3 23-501): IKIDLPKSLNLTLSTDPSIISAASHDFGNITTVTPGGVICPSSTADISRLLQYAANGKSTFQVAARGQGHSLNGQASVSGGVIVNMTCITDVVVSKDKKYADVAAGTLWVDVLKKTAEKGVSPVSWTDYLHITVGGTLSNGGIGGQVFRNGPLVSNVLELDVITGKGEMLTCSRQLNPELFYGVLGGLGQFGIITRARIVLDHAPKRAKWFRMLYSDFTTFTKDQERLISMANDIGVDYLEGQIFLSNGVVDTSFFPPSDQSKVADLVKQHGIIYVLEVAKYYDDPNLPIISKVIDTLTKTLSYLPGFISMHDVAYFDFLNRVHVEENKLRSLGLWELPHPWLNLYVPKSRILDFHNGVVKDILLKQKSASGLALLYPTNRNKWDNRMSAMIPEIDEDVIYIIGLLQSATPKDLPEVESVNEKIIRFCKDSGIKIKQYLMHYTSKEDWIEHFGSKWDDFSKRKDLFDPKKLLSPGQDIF
The test is described as follows: Inhibition of cytokinin oxidase/dehydrogenase activity (PMS/MTT microtitre assay). It is filed as biochemical. The method, then:
IC50 measurements were done using the assay in microtitre plate. Each well contained 100 μL of PMS/MTT [phenazine methosulfate/3-(4,5-dimethylthiazol-2-yl)-2,5-diphenyltetrazolium bromide] reaction mixture (final concentrations: 0.1 M KH2PO4, pH 7.4, 1 mM MTT, 0.2 mM PMS) containing the tested compound (3×10^−7 M-3×10^−4 M) and 30 μM N^6-isopentenyladenine (iP) as a substrate. 100 μL of cell-free growth medium of S. cerevisiae strain 23344c ura^− harboring the plasmid pYES2-AtCKX2 was directly used as a source of AtCKX2. Plates were incubated in the dark for 30 min at 37° C. and the enzymatic reaction was stopped by 25 μL of 35% acetic acid. The absorbance at 578 nm was measured using spectrophotometer Tecan. Absorbance of the sample without iP was subtracted.
The IC50 value, the compound concentration that inhibits the enzyme activity to 50%, was calculated from the obtained dose response curves. The values shown in Table 7 are means of three replicates and the entire test was repeated at least twice. […] Compound 12 is an effective inhibitor of AtCKX2 activity, app. 3-times stronger that thidiazuron and only app. 3-times weaker than the structurally related compound INCYDE (2-chloro-6-(3-methoxyanilino)purine).
For orientation: Tetrazolium dyes change colour on reduction, which living cells bring about.

The target in test [4] is T2, AHK3 (Arabidopsis thaliana, UniProt Q9C5U1).
T2 construct: expressed in transfected cells; host or cells: Escherichia coli strain KMI001
T2 sequence (Q9C5U1 1-1036): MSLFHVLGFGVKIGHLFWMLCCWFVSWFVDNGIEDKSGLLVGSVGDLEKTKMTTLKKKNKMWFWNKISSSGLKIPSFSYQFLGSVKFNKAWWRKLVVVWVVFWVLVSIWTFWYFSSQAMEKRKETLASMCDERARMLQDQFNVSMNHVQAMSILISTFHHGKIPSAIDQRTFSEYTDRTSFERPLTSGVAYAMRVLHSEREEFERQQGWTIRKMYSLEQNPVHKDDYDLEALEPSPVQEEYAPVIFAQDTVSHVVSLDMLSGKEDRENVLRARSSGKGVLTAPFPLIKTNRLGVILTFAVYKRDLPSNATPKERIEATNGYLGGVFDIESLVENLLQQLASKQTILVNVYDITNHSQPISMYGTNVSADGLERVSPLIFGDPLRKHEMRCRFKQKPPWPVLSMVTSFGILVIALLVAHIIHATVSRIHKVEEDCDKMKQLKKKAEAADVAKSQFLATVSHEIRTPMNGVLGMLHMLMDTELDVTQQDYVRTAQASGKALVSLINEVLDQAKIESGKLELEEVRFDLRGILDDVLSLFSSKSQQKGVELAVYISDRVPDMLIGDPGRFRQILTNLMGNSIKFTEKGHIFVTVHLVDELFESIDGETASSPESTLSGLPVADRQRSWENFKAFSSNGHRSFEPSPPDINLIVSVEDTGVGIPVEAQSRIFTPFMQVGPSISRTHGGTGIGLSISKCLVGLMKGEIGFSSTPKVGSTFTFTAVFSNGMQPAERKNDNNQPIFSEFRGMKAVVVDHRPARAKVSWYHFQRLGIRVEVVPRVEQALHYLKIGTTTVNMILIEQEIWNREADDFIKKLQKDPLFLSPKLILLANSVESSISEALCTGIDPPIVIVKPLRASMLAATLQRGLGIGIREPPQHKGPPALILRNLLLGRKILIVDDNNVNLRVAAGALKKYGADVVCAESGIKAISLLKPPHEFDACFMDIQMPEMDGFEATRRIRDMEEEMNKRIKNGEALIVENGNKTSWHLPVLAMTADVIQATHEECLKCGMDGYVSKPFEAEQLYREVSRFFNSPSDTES
The test can be described thus: Escherichia coli cytokinin receptor activation assay (AHK3). In kind it is cell-based. Particulars: 10^−7 M-5×10^−5 M, compared to trans-zeatin, FIG. 1. The method, then:
(§1) Escherichia coli strains KMI001 harbouring the plasmid pIN-III-AHK4 or pSTV28-AHK3 were grown overnight at 25° C. in M9 media enriched with 0.1% casamino acids to OD600˜1. The preculture was diluted 1:600 in 1 ml M9 medium containing 0.1% casamino acids and 1 μL stock solution of either the tested compound (10^−7 M-5×10^−5 M) or solvent control (DMSO, ethanol, methanol) were added. The cultures were further grown at 25° C. in microtiter plate, 200 μL per well. […] The cultures were centrifuged and 50 μL aliquots of the supernatant were transferred to microtiter plate containing 2 μL 50 mM 4-methyl umbelliferyl galactoside which was subsequently incubated for 1 h at 37° C. The reaction was stopped by adding 100 μL 0.2 M Na2CO3. Fluorescence was measured using a Fluoroscan Ascent (Labsystems, Finland) at the excitation and emission wavelengths of 365 and 460 nm, respectively. The OD600 of remaining culture was determined and β-galactosidase activity was calculated as nmol 4-methylumbelliferone×OD600^−1×h^−1.

Test [5] concerns the target T3, CRE1/AHK4 (Arabidopsis thaliana, UniProt Q9C5U0).
T3 construct: expressed in transfected cells; host or cells: Escherichia coli strain KMI001
The test is described as follows: Escherichia coli cytokinin receptor activation assay (CRE1/AHK4). It is filed as cell-based. To be noted: 10^−7 M-5×10^−5 M, compared to trans-zeatin, FIG. 1. The method, then: as §1

Test [6] has as its system ARR5:GUS reporter gene. The test is described as follows: Induction of cytokinin reporter ARR5:GUS in transgenic Arabidopsis plants. In kind it is in vivo. Particulars: 0.01-10 μM, 17 h, FIG. 2. The method, then:
Cytokinins induce in Arabidopsis transcription of gene ARR5, a member of A-type response regulator family classified as cytokinin primary response genes being expressed down-stream of sensing by cytokinin receptors. We cultivated transgenic Arabidopsis plants harbouring PARR5::GUS reporter (D'Agostino et al. Plant Physiol. 124: 1706-1717, 2000) in MS medium containing cytokinin BAP, CKX inhibitor INCYDE and novel compounds 12 and 91 in concentrations 0.01, 0.1, 1, 5, 10 μM; DMSO (0.1%) was tested as solvent control. Seeds were surface-sterilized in 70% ethanol and then placed into wells of 6-well microtiter plate (TPP, Switzerland) containing 3 mL of MS medium in each well. After sowing plates were pretreated in dark at 4° C. to synchronize the germination of the seeds. […] Quantitative estimation of the level of ARR5:GUS gene induction was done according to method published by Romanov et al. (Romanov et al. FEBS Letters 515: 39-43, 2002). After extraction of proteins the GUS activity was determined using incubation with fluorogenic substrate MUG (4-methylumbelliferyl glucuronid; 1 h, 37° C.) and then fluorescence 365 nm and 460 nm (excitation and emission wavelengths) was recorded, as described in detail by Spíchal et al. (Spíchal et al. Plant and Cell Physiology 45: 1299-1305, 2004).

Where [7] appears, read: 30 μM iP substrate, 30 min, 37° C., read-out: IC50.

T3 sequence (Q9C5U0 whole entry): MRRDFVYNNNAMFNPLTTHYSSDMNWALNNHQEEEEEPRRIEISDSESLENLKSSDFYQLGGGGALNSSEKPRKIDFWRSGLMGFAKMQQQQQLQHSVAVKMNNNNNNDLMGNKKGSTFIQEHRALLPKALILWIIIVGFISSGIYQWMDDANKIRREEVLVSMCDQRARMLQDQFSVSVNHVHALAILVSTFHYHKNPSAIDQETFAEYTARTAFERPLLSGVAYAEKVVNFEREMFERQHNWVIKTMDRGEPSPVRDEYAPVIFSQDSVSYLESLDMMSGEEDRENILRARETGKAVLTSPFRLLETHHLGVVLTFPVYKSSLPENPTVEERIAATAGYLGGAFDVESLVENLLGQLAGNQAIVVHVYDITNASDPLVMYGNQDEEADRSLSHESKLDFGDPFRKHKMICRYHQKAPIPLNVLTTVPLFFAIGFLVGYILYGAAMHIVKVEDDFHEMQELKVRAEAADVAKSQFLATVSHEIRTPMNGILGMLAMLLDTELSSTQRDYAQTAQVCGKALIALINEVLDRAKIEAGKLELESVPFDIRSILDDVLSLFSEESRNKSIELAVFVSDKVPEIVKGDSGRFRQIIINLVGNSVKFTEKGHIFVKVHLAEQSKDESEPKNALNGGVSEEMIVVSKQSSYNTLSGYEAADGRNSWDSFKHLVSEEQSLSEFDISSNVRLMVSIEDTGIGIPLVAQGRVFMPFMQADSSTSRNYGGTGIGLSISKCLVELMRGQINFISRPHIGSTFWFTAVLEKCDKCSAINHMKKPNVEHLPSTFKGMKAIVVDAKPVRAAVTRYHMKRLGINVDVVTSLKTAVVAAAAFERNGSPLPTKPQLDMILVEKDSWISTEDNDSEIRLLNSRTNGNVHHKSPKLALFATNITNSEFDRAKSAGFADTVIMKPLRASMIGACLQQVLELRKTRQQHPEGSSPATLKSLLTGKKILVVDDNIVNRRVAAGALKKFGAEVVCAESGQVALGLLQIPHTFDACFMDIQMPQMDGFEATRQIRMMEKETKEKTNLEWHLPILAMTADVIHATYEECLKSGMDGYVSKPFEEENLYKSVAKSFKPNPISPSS

For the compound `c1ccc(CNc2ncnc3nc[nH]c23)cc1` [BAP, 6-benzylaminopurine], the “complementation of wild type shoot phenotype” value in test [1] is listed as “cannot be reached”. Also, the root growth result in test [2] is listed as “inhibited root growth”.

What is called IC50 is the point on the concentration scale where inhibition reaches its midpoint. Consider `COc1cccc(Nc2nc(Cl)nc3nc[nH]c23)c1` [INCYDE, 2-chloro-6-(3-methoxyanilino)purine], for which, in test [1], the “complementation of wild type shoot phenotype” value was “led to restauration of wild type shoot phenotype”. Further, the “root biomass of 35S:CKX1 plants” value in test [1] (tested concentration range, FIG. 5) is “did not influence the root biomass”. In addition, in test [2], the root growth result is “inhibited root growth”. For the same compound, the IC50 in test [3] (setting [7]) was found to be 6.7 µM.

As to `COc1cccc(Nc2nc(F)nc3[nH]cnc23)c1` [INCYDE-F, 2-fluoro-6-(3-methoxyanilino)purine, reference compound], the IC50 in test [3] (setting [7]) is 5.2 µM.

For `COc1cccc(Nc2nc(F)nc3c2ncn3C2CCCCO2)c1` (stereo not drawn) [compound 91, 2-fluoro-6-(3-methoxyanilino)-9-(tetrahydropyran-2-yl)purine], the “ability to activate cytokinin receptor AHK3” value in test [4] is recorded as “do not activate any of the receptors”. Moreover, the IC50 in test [3] (setting [7]) came out at 380 µM. For the same compound, in test [5], the “ability to activate cytokinin receptor CRE1/AHK4” value was “do not activate any of the receptors”. Moreover, the “induction of ARR5:GUS expression” value in test [6] is given as “dose-dependent induction of ARR5:GUS expression”.

Turning to `O=C(Nc1ccccc1)Nc1cnns1` [thidiazuron, reference compound], the IC50 in test [3] was 55 µM.
